Measurements as given in article PMC6254728, “Synthesis and Anti-Human Immunodeficiency Virus Type 1 Activity of (E)-N-Phenylstyryl-N-alkylacetamide Derivatives” (Molecules, 2009).

Each compound was assayed against T1, HIV-1 reverse transcriptase (HIV-1 RT) (HIV-1 M:B_HXB2R, UniProt P04585) (assay: RT ELISA (DIG-labelled reaction mixture, anti-DIG-POD, ABTS; Roche kit)). Settings: 37 °C, 15 h.
T1 construct: gene gag-pol; recombinant HIV-1 RT used with commercial ELISA kit (Roche Molecular Biochemicals); mature chains cut from Gag-Pol polyprotein; with p51 RT
Assay type: biochemical
Text: RT ELISA (DIG-labelled reaction mixture, anti-DIG-POD, ABTS; Roche kit) on HIV-1 reverse transcriptase (HIV-1 RT)

Row | SMILES | IC50 [µM]
1 | CC(=O)N(/C=C/c1ccccc1Br)Cc1cc(F)cc(F)c1 [5i, (E)-N-(2-bromostyryl)-N-3’,5’-difluorobenzylacetamide] | 97 ± 13
2 | CC(=O)N(C)/C=C/c1ccccc1Cl [5k, (E)-N-(2-chlorostyryl)-N-methylacetamide] | 434 ± 44
3 | O=C(O)P(=O)(O)O [PFA, reference compound] | 5
4 | CC(=O)N(/C=C/c1ccccc1Br)Cc1c(F)cccc1F [5h, (E)-N-(2-bromostyryl)-N-2’,6’-difluorobenzylacetamide] | 295 ± 9
5 | CC(=O)N(C)/C=C/c1ccccc1F [5n, (E)-N-(2-fluorostyryl)-N-methylacetamide] | 477 ± 107
6 | CCN(/C=C/c1ccccc1Cl)C(C)=O [5l, (E)-N-(2-chlorostyryl)-N-ethylacetamide] | 521 ± 11
7 | CC(=O)N(/C=C/c1ccccc1Br)C(C)=O [5f, (E)-N-(2-bromostyryl)-N-acetylacetamide] | 320 ± 22
8 | CC(=O)N(C)/C=C/c1ccccc1Br [5c, (E)-N-(2-bromostyryl)-N-methylacetamide] | 339 ± 107
9 | COc1ccc(/C=C/N(C)C(C)=O)c(OC)c1 [5r, (E)-N-(2,4-dimethoxystyryl)-N-methylacetamide] | 373 ± 40
10 | CC(=O)N(C)/C=C/c1ccccc1C [5p, (E)-N-(2-methylstyryl)-N-methylacetamide] | 487 ± 27
